# Earlier results as cited in US11826321B2, “Cyclobenzaprine treatment for agitation, psychosis and cognitive decline in dementia and neurodegenerative conditions” (TONIX PHARMA HOLDINGS LIMITED, priority 2017, dated 2023).
# How the values were obtained:
# [1] = IR 5 to 10 mg TID and ER 15 mg BID/QD to 30 mg QD; scale to 3
# [2] = PubMed, NIH Drug Reaction Navigator, Medscape Drug Interaction Checker, Drugs.com
# [3] = target: serotonergic-2A (5-HT2A) receptor (Homo sapiens, UniProt P28223)
# [4] = target: alpha-adrenergic-1A (α1A) receptor (Homo sapiens, UniProt P35348)
# Chain of alpha-adrenergic-1A (α1A) receptor (P35348 whole entry): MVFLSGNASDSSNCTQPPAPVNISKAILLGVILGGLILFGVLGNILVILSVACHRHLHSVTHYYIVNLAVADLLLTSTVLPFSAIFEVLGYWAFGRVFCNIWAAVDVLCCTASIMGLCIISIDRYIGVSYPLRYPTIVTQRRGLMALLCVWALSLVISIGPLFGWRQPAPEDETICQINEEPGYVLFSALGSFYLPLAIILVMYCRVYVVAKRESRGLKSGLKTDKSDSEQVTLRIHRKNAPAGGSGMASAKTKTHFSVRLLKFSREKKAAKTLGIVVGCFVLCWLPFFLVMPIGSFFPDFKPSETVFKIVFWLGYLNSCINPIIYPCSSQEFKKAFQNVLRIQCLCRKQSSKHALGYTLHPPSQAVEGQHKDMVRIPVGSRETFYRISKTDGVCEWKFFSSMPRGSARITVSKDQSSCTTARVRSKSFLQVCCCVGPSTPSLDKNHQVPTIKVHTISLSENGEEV
# [5] = IR 5 mg TID, 10 doses over 4 days, healthy elderly 62 to 80 years
# Chain of serotonergic-2A (5-HT2A) receptor (P28223 whole entry, species assumed): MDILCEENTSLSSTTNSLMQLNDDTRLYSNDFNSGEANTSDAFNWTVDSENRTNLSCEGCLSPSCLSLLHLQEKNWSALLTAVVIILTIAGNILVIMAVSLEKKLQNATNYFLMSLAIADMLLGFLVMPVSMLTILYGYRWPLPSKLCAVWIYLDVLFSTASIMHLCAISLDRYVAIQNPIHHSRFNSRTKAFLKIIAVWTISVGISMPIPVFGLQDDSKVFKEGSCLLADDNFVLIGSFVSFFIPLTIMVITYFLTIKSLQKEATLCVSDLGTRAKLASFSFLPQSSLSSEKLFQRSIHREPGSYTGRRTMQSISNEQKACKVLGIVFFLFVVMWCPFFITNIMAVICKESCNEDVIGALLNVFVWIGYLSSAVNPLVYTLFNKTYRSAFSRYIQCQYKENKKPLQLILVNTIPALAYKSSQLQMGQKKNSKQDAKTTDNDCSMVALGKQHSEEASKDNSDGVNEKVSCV
smiles,measurement,setting,value
"CN(C)CCC=C1c2ccccc2C=Cc2ccccc21 [Cyclobenzaprine, 3-(5H-dibenzola[a,d]cyclohepten-5-ylidene)-N,N-dimethyl-1 propanamine]",anticholinergic burden scale score,[1],2
same,"reports of drug-drug interactions with donepezil, rivastigmine, galantamine, memantine",[2],did not identify any reports of interactions
same,hallucinations reported among patients who took 5 mg TID,5 mg TID,none were reported
same,incidence of hallucinations,"cyclobenzaprine 10 mg, mostly elderly patients",0.2%
same,5-HT2A antagonist potency,[3],potent
same,α1A antagonist potency,[4],potent
same,drowsiness and cognitive test performance,[5],does not appear to cause excessive drowsiness or impair performance on cognitive tasks
